Results: patent publication US6355799B1, “Substituted benzene compounds, process for their preparation, and herbicidal and defoliant compositions containing them” (ISK Americas Incorporated, priority 1997, dated 2002)

Columns and labels:
Assay type in all cases: in vivo
[1] = system: green foxtail (Setaria viridis, SETVI); assay: Pre-emerge test, greenhouse herbicide activity screening; conditions: for Pre-emerge herbicidal activity, phytotoxicity rating SETVI: rating scale 0-100, 14 days after application; for phytotoxicity rating SETVI: pre-emerge, 14 days after application, scale 0-100
Source text: (§1) A standard greenhouse herbicide activity screening system was used to evaluate the herbicidal efficacy and crop safety of these test compounds. Seven broadleaf weed species including redroot pigweed (Amaranthus retroflexus, AMARE, velvetleaf (Abutilon theophrasti, ABUTH), sicklepod (Cassia obtusifolia, CASOB), ivyleaf morningglory (Ipomoea hederacea, IPOHE), lambsquarters (Chenopodium album, CHEAL), common ragweed (Ambrosia artemisizfolia L., AMBEL), and cocklebur (Xanthium strumarium, XANST) were used as test species. Four grass weed species including green foxtail (Setaria viridis, SETVI), barnyardgrass (Echinochloa crus-galli, ECHCG), johnsongrass (Sorghum halepense, SORHA), and large crabgrass (Digitaria sanguinalis, DIGSA) were also used. In addition, three crop species, field corn (Zea mays L., var. Dekalb 535, CORN), soybean (Glycine max L., var. Pella 86, SOY), and is upland rice (Oryza sp., var. Tebonnet, RICE) were included.
(§2) All plants were grown in 10 cm square plastic pots which were filled with a sandy loam soil mix. For pre-emerge tests, seeds were planted one day prior to application of the test compounds. For post-emerge tests, seeds were planted 8-21 days prior to the test to allow emergence and good foliage development prior to application of the test substances. At the time of the post-emerge application, plants of all species were usually at the 2-3 leaf stage of development.
(§3) All test compounds Were dissolved in acetone and applied to the test units in a volume of 187 l /ha. Test materials were applied at rates ranging from 15 g ai/ha to 1000 g ai/ha using a track sprayer equipped with a TJ8001E even flow flat fan spray nozzle. Plants were arranged on a shelf so that the top of the canopy (post-emerge) or top of the soil surface (pre-emerge) was 40-45 cm below the nozzle. Pressurized air was used to force the test solution through the nozzle as it was mechanically advanced (via electrically driven chain drive) over the top of all test plants/pots. This application simulates a typical commercial field herbicide application.
(§4) In the post-emerge test, a commercial non-ionic surfactant was also included (0.25% v/v) to enhance wetting of the leaf surfaces of target plants. Immediately after application, test units of the pre-emerge applications were watered at the soil surface to incorporate the test materials. Subsequently, these test units were bottom-watered. Post-emerge test units were always bottom-watered.
(§5) At 14 days after application of the test materials, phytotoxicity ratings were recorded. A rating scale of 0-100 was used as previously described in Research Methods in Weed Science, 2nd edition, B. Truelove, Ed., Southern Weed Science Society, Auburn University, Auburn, Ala. 1977. Briefly, “0” corresponds to no damage and “100” corresponds to complete death of all plants in the test unit. This scale was used both to determine efficacy against weed species and damage to crop species. Herbicide activity data for various compounds of this invention, which are shown by compound No. in Tables 1-8, are shown in Tables 11 and 12.

[2] = system: barnyardgrass (Echinochloa crus-galli, ECHCG); assay: as above; conditions: for Pre-emerge herbicidal activity, phytotoxicity rating ECHCG: rating scale 0-100, 14 days after application; for phytotoxicity rating ECHCG: pre-emerge, 14 days after application, scale 0-100
Source text: as §1, §2, §3, §4, §5

[3] = system: ivyleaf morningglory (Ipomoea hederacea, IPOHE); assay: as above; conditions: for Pre-emerge herbicidal activity, phytotoxicity rating IPOHE: rating scale 0-100, 14 days after application; for phytotoxicity rating IPOHE: pre-emerge, 14 days after application, scale 0-100
Source text: as §1, §2, §3, §4, §5

[4] = system: velvetleaf (Abutilon theophrasti, ABUTH); assay: as above; conditions: for Pre-emerge herbicidal activity, phytotoxicity rating ABUTH: rating scale 0-100, 14 days after application; for phytotoxicity rating ABUTH: pre-emerge, 14 days after application, scale 0-100
Source text: as §1, §2, §3, §4, §5

[5] = system: sicklepod (Cassia obtusifolia, CASOB); assay: as above; conditions: for Pre-emerge herbicidal activity, phytotoxicity rating CASOB: rating scale 0-100, 14 days after application; for phytotoxicity rating CASOB: pre-emerge, 14 days after application, scale 0-100
Source text: as §1, §2, §3, §4, §5

[6] = system: lambsquarters (Chenopodium album, CHEAL); assay: as above; conditions: for Pre-emerge herbicidal activity, phytotoxicity rating CHEAL: rating scale 0-100, 14 days after application; for phytotoxicity rating CHEAL: pre-emerge, 14 days after application, scale 0-100
Source text: as §1, §2, §3, §4, §5

[7] = system: large crabgrass (Digitaria sanguinalis, DIGSA); assay: as above; conditions: for Pre-emerge herbicidal activity, phytotoxicity rating DIGSA: rating scale 0-100, 14 days after application; for phytotoxicity rating DIGSA: pre-emerge, 14 days after application, scale 0-100
Source text: as §1, §2, §3, §4, §5

[8] = system: green foxtail (Setaria viridis, SETVI); assay: Post-emerge test, greenhouse herbicide activity screening; conditions: 14 days after application; for Post-emerge Herbicidal Activity, phytotoxicity rating SETVI: rating scale 0-100 (0 no damage, 100 complete death); for SETVI phytotoxicity rating: post-emerge, rating scale 0-100
Source text: as §1, §2, §3, §4, §5

[9] = system: barnyardgrass (Echinochloa crus-galli, ECHCG); assay: as above; conditions: 14 days after application; for Post-emerge Herbicidal Activity, phytotoxicity rating ECHCG: rating scale 0-100 (0 no damage, 100 complete death); for ECHCG phytotoxicity rating: post-emerge, rating scale 0-100
Source text: as §1, §2, §3, §4, §5

[10] = system: ivyleaf morningglory (Ipomoea hederacea, IPOHE); assay: as above; conditions: 14 days after application; for Post-emerge Herbicidal Activity, phytotoxicity rating IPOHE: rating scale 0-100 (0 no damage, 100 complete death); for IPOHE phytotoxicity rating: post-emerge, rating scale 0-100
Source text: as §1, §2, §3, §4, §5

[11] = system: velvetleaf (Abutilon theophrasti, ABUTH); assay: as above; conditions: 14 days after application; for Post-emerge Herbicidal Activity, phytotoxicity rating ABUTH: rating scale 0-100 (0 no damage, 100 complete death); for ABUTH phytotoxicity rating: post-emerge, rating scale 0-100
Source text: as §1, §2, §3, §4, §5

[12] = system: sicklepod (Cassia obtusifolia, CASOB); assay: as above; conditions: 14 days after application; for Post-emerge Herbicidal Activity, phytotoxicity rating CASOB: rating scale 0-100 (0 no damage, 100 complete death); for CASOB phytotoxicity rating: post-emerge, rating scale 0-100
Source text: as §1, §2, §3, §4, §5

[13] = system: redroot pigweed (Amaranthus retroflexus, AMARE); assay: as above; conditions: 14 days after application; for Post-emerge Herbicidal Activity, phytotoxicity rating AMARE: rating scale 0-100 (0 no damage, 100 complete death); for AMARE phytotoxicity rating: post-emerge, rating scale 0-100
Source text: as §1, §2, §3, §4, §5

[14] = system: lambsquarters (Chenopodium album, CHEAL); assay: as above; conditions: 14 days after application; for Post-emerge Herbicidal Activity, phytotoxicity rating CHEAL: rating scale 0-100 (0 no damage, 100 complete death); for CHEAL phytotoxicity rating: post-emerge, rating scale 0-100
Source text: as §1, §2, §3, §4, §5

[15] = system: large crabgrass (Digitaria sanguinalis, DIGSA); assay: as above; conditions: 14 days after application; for Post-emerge Herbicidal Activity, phytotoxicity rating DIGSA: rating scale 0-100 (0 no damage, 100 complete death); for DIGSA phytotoxicity rating: post-emerge, rating scale 0-100
Source text: as §1, §2, §3, §4, §5

[16] = system: redroot pigweed (Amaranthus retroflexus, AMARE); assay: Pre-emerge test, greenhouse herbicide activity screening; conditions: for Pre-emerge herbicidal activity, phytotoxicity rating AMARE: rating scale 0-100, 14 days after application; for phytotoxicity rating AMARE: pre-emerge, 14 days after application, scale 0-100
Source text: as §1, §2
as §3, with “Test materials were applied at rates ranging from 15 g ai/ha to 1000 g ai/ha using a track sprayer equipped with a TJ8001E even flow flat fan spray nozzle.” left out
as §4, §5

CCOC(=O)C(Cl)Cc1c(OC)c(Cl)cc(F)c1-n1c(=O)cc(C(F)(F)F)n(C)c1=O (single isomer, unassigned) [Compound 14-5, 3-{4-chloro-2-[2-chloro-2-(ethoxycarbonyl)ethyl]-6-fluoro-3-methoxyphenyl}-1-methyl-6-trifluoromethyl-2,4(1H, 3H)-pyrimidinedione]
Pre-emerge herbicidal activity, phytotoxicity rating SETVI ([1]; 63 g ai/ha): 10
Pre-emerge herbicidal activity, phytotoxicity rating SETVI ([1]; 250 g ai/ha): 60
Pre-emerge herbicidal activity, phytotoxicity rating ECHCG ([2]; 63 g ai/ha): 0
Pre-emerge herbicidal activity, phytotoxicity rating ECHCG ([2]; 250 g ai/ha): 40
Pre-emerge herbicidal activity, phytotoxicity rating IPOHE ([3]; 63 g ai/ha): 20
Pre-emerge herbicidal activity, phytotoxicity rating IPOHE ([3]; 250 g ai/ha): 30
Pre-emerge herbicidal activity, phytotoxicity rating ABUTH ([4]; 63 g ai/ha): 100
Pre-emerge herbicidal activity, phytotoxicity rating ABUTH ([4]; 250 g ai/ha): 100
Pre-emerge herbicidal activity, phytotoxicity rating CASOB ([5]; 63 g ai/ha): 0
Pre-emerge herbicidal activity, phytotoxicity rating CASOB ([5]; 250 g ai/ha): 10
Pre-emerge herbicidal activity, phytotoxicity rating CHEAL ([6]; 63 g ai/ha): 70
Pre-emerge herbicidal activity, phytotoxicity rating CHEAL ([6]; 250 g ai/ha): 100
Pre-emerge herbicidal activity, phytotoxicity rating DIGSA ([7]; 63 g ai/ha): 20
Pre-emerge herbicidal activity, phytotoxicity rating DIGSA ([7]; 250 g ai/ha): 95
Post-emerge Herbicidal Activity, phytotoxicity rating SETVI ([8]; Rate 63 g ai/ha): 60
Post-emerge Herbicidal Activity, phytotoxicity rating SETVI ([8]; Rate 250 g ai/ha): 95
Post-emerge Herbicidal Activity, phytotoxicity rating ECHCG ([9]; Rate 63 g ai/ha): 40
Post-emerge Herbicidal Activity, phytotoxicity rating ECHCG ([9]; Rate 250 g ai/ha): 100
Post-emerge Herbicidal Activity, phytotoxicity rating IPOHE ([10]; Rate 63 g ai/ha): 30
Post-emerge Herbicidal Activity, phytotoxicity rating IPOHE ([10]; Rate 250 g ai/ha): 100
Post-emerge Herbicidal Activity, phytotoxicity rating ABUTH ([11]; Rate 63 g ai/ha): 100
Post-emerge Herbicidal Activity, phytotoxicity rating ABUTH ([11]; Rate 250 g ai/ha): 100
Post-emerge Herbicidal Activity, phytotoxicity rating CASOB ([12]; Rate 63 g ai/ha): 10
Post-emerge Herbicidal Activity, phytotoxicity rating CASOB ([12]; Rate 250 g ai/ha): 50
Post-emerge Herbicidal Activity, phytotoxicity rating AMARE ([13]; Rate 63 g ai/ha): 100
Post-emerge Herbicidal Activity, phytotoxicity rating AMARE ([13]; Rate 250 g ai/ha): 100
Post-emerge Herbicidal Activity, phytotoxicity rating CHEAL ([14]; Rate 63 g ai/ha): 100
Post-emerge Herbicidal Activity, phytotoxicity rating CHEAL ([14]; Rate 250 g ai/ha): 100
Post-emerge Herbicidal Activity, phytotoxicity rating DIGSA ([15]; Rate 63 g ai/ha): 95
Post-emerge Herbicidal Activity, phytotoxicity rating DIGSA ([15]; Rate 250 g ai/ha): 100
Pre-emerge herbicidal activity, phytotoxicity rating AMARE ([16]; 63 g ai/ha): 70
Pre-emerge herbicidal activity, phytotoxicity rating AMARE ([16]; 250 g ai/ha): 100

Cn1c(C(F)(F)F)cc(=O)n(-c2ccc(Cl)cc2NC(=O)c2ccc3ccccc3c2)c1=O [Compound 2-131, 3-[4-chloro-2-(2-naphthoylamino)phenyl]-1-methyl-6-trifluoromethyl-2,4(1H, 3H)-pyrimidinedione]
phytotoxicity rating SETVI ([1]; 63 g ai/ha): 40
phytotoxicity rating SETVI ([1]; 250 g ai/ha): 90
phytotoxicity rating ECHCG ([2]; 63 g ai/ha): 10
phytotoxicity rating ECHCG ([2]; 250 g ai/ha): 60
phytotoxicity rating IPOHE ([3]; 63 g ai/ha): 30
phytotoxicity rating IPOHE ([3]; 250 g ai/ha): 85
phytotoxicity rating ABUTH ([4]; 63 g ai/ha): 85
phytotoxicity rating ABUTH ([4]; 250 g ai/ha): 100
phytotoxicity rating CASOB ([5]; 63 g ai/ha): 60
phytotoxicity rating CASOB ([5]; 250 g ai/ha): 95
phytotoxicity rating CHEAL ([6]; 63 g ai/ha): 90
phytotoxicity rating CHEAL ([6]; 250 g ai/ha): 100
phytotoxicity rating DIGSA ([7]; 63 g ai/ha): 40
phytotoxicity rating DIGSA ([7]; 250 g ai/ha): 80
SETVI phytotoxicity rating ([8]; 63 g ai/ha): 70
SETVI phytotoxicity rating ([8]; 250 g ai/ha): 90
ECHCG phytotoxicity rating ([9]; 63 g ai/ha): 30
ECHCG phytotoxicity rating ([9]; 250 g ai/ha): 60
IPOHE phytotoxicity rating ([10]; 63 g ai/ha): 100
IPOHE phytotoxicity rating ([10]; 250 g ai/ha): 100
ABUTH phytotoxicity rating ([11]; 63 g ai/ha): 100
ABUTH phytotoxicity rating ([11]; 250 g ai/ha): 100
CASOB phytotoxicity rating ([12]; 63 g ai/ha): 80
CASOB phytotoxicity rating ([12]; 250 g ai/ha): 100
AMARE phytotoxicity rating ([13]; 63 g ai/ha): 100
AMARE phytotoxicity rating ([13]; 250 g ai/ha): 100
CHEAL phytotoxicity rating ([14]; 63 g ai/ha): 100
CHEAL phytotoxicity rating ([14]; 250 g ai/ha): 100
DIGSA phytotoxicity rating ([15]; 63 g ai/ha): 30
DIGSA phytotoxicity rating ([15]; 250 g ai/ha): 70
phytotoxicity rating AMARE ([16]; 63 g ai/ha): 90
phytotoxicity rating AMARE ([16]; 250 g ai/ha): 95
